Measured values published in ChEMBL document CHEMBL4028801, “A multifactorial approach to hepatobiliary transporter assessment enables improved therapeutic compound development” (Toxicol Sci, 2013).
Counter-ions that a name gives are not always drawn.

Experiments:
[1] = molecular target: ATP-binding cassette sub-family C member 3 (Homo sapiens, UniProt O15438); assay: Inhibition of human MRP3 overexpressed in Sf9 insect cell membrane vesicles assessed as uptake of [3H]-estradiol-17beta-D-glucuronide in presence of ATP and GSH measured after 10 mins by membrane vesicle transport assay; format: ADME, cell-based
[2] = molecular target: T1, ATP-binding cassette sub-family C member 4 (Homo sapiens, UniProt O15439); assay: Inhibition of human MRP4 overexpressed in Sf9 cell membrane vesicles assessed as uptake of [3H]-estradiol-17beta-D-glucuronide in presence of ATP and GSH measured after 20 mins by membrane vesicle transport assay; format: ADME, cell-based
T1 sequence (O15439 whole entry): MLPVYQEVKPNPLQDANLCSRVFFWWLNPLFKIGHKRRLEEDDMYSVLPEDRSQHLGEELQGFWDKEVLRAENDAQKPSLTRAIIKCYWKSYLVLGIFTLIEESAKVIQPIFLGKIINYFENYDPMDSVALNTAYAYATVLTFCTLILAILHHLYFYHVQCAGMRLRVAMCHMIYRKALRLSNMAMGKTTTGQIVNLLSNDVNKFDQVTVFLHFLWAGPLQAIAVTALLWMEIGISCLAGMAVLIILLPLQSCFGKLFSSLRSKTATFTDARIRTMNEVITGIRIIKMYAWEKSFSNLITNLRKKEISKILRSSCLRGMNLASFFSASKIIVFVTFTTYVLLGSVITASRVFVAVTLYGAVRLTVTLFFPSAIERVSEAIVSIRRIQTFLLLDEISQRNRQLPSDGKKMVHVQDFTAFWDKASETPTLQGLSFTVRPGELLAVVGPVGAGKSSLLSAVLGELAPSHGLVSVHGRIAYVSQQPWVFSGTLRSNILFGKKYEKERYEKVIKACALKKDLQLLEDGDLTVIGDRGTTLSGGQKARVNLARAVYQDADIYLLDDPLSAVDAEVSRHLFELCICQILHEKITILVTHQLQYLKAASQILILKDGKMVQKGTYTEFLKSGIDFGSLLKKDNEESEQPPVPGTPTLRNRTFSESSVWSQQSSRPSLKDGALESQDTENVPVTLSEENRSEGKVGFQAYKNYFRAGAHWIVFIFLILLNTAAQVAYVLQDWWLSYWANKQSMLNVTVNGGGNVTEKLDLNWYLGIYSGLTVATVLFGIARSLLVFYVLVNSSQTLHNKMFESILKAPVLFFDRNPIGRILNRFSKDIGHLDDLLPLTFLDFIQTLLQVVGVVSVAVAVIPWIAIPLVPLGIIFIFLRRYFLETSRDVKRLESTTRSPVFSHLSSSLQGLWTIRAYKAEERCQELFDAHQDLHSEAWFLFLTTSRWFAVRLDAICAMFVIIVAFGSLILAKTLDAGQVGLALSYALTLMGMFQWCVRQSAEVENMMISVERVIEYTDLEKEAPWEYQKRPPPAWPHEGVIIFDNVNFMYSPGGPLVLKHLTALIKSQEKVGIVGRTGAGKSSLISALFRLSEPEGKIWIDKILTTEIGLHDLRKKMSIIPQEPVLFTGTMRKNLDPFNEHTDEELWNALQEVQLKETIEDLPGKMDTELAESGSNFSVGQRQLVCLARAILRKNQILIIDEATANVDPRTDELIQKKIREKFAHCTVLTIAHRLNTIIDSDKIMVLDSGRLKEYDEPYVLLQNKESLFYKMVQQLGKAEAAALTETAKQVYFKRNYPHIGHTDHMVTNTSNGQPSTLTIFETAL

[3] = molecular target: ATP-binding cassette sub-family C member 2 (Homo sapiens, UniProt Q92887); assay: Inhibition of human MRP2 overexpressed in Sf9 cell membrane vesicles assessed as uptake of [3H]-estradiol-17beta-D-glucuronide in presence of ATP and GSH measured after 20 mins by membrane vesicle transport assay
Sequence of ATP-binding cassette sub-family C member 2 (Q92887 whole entry): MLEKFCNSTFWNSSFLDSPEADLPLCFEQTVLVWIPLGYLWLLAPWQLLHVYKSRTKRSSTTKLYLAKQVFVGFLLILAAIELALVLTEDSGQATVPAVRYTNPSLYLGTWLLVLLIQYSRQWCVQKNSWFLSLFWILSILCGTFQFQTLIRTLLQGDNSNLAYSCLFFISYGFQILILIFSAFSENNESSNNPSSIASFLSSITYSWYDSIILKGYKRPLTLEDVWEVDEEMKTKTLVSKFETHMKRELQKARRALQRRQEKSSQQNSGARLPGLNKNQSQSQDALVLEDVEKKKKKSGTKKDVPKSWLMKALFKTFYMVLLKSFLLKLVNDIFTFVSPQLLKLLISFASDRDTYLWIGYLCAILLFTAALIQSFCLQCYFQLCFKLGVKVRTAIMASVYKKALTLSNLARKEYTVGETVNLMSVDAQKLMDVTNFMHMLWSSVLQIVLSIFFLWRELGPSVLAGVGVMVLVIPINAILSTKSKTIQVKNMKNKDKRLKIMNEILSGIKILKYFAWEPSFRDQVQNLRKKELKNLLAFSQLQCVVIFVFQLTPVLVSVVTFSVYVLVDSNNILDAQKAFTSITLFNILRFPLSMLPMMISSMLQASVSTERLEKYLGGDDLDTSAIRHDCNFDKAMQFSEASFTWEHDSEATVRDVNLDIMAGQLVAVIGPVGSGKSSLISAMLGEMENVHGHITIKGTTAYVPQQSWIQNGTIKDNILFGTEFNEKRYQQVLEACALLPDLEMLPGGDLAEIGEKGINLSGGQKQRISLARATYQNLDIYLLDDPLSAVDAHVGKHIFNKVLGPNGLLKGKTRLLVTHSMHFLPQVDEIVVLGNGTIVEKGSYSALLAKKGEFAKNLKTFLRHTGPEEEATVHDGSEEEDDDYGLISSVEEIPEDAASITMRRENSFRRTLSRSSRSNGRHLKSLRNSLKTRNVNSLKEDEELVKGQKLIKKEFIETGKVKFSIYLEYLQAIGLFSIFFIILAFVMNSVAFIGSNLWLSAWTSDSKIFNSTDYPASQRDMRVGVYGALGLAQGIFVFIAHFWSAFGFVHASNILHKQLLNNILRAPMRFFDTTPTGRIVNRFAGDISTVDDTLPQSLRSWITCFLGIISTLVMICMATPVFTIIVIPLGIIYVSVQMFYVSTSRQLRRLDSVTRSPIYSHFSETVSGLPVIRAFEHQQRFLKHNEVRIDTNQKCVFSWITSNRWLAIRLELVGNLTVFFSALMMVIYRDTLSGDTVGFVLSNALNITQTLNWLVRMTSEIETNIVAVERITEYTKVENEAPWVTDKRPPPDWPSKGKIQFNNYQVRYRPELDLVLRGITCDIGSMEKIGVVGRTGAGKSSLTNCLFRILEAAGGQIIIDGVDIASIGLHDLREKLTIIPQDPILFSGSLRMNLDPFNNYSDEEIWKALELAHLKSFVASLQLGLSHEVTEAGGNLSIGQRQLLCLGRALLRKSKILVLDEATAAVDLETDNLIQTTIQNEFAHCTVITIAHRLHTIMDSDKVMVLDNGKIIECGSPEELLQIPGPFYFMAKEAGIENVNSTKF

Sequence of ATP-binding cassette sub-family C member 3 (O15438 whole entry): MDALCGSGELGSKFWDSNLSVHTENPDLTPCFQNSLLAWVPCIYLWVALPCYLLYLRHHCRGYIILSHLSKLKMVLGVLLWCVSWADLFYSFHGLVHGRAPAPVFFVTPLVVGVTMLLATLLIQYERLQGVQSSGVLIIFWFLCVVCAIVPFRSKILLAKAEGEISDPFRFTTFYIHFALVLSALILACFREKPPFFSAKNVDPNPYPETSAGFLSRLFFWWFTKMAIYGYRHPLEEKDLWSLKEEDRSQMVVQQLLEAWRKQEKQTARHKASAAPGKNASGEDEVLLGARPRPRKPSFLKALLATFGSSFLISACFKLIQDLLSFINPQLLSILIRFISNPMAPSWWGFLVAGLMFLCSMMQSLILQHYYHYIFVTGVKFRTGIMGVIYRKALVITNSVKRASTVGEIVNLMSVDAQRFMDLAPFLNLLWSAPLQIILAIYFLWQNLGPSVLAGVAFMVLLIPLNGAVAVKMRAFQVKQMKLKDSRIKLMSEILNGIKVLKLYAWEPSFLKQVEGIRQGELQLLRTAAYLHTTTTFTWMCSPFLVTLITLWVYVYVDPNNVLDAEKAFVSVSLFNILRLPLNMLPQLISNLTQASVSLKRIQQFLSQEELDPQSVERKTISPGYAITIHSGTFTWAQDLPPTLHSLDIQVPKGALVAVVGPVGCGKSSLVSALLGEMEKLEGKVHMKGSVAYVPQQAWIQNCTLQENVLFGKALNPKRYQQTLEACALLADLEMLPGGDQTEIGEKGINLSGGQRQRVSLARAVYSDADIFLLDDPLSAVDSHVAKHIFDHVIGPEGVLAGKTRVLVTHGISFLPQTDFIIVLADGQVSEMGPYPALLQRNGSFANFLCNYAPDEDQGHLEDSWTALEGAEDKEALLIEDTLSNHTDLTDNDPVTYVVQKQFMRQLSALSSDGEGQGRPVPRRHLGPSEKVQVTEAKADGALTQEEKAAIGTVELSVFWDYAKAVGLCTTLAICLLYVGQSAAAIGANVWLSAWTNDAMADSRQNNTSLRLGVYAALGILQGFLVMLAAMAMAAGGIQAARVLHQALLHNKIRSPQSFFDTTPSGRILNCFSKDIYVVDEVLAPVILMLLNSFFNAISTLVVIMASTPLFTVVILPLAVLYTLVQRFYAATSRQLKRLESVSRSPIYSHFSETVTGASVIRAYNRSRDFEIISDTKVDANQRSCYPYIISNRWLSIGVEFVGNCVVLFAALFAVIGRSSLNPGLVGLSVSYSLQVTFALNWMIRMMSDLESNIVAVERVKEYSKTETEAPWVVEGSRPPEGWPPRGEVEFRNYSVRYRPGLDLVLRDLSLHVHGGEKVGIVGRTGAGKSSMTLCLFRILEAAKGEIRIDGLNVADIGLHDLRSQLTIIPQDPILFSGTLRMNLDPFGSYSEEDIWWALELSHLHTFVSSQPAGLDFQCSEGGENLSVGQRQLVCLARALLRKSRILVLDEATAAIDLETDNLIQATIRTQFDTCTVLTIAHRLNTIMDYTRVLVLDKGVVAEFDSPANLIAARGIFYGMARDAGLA

Row | Compound | IC50 [1] [µM] | IC50 [2] [µM] | IC50 [3] [µM]
1 | CC[C@H]1OC(=O)[C@H](C)[C@@H](O[C@H]2C[C@@](C)(OC)[C@@H](O)[C@H](C)O2)[C@H](C)[C@@H](O[C@@H]2O[C@H](C)C[C@H](N(C)C)[C@H]2O)[C@](C)(O)C[C@@H](C)C(=O)[C@H](C)[C@@H](O)[C@]1(C)O | > 133 | 68.2 | > 133
2 | CCN(CC)CCNC(=O)c1c(C)[nH]c(/C=C2\C(=O)Nc3ccc(F)cc32)c1C | > 133 | > 133 | > 133
3 | C#C[C@@]1(O)CC[C@H]2[C@@H]3CCC4=CC(=O)CC[C@@H]4[C@H]3CC[C@@]21C | > 133 | > 133 | > 133
4 | COc1ccc(CCN(C)CCCC(C#N)(c2ccc(OC)c(OC)c2)C(C)C)cc1OC (centres undefined) | > 133 | – | > 133
5 | CCN(CC)C(=S)SSC(=S)N(CC)CC | > 133 | > 133 | > 133
6 | CN1[C@@H]2CC[C@H]1C[C@@H](OC(=O)C(CO)c1ccccc1)C2 (mixture of isomers) [ATROPINE] | > 133 | > 133 | > 133
7 | CC(=O)Nc1nnc(S(N)(=O)=O)s1 [ACETAZOLAMIDE] | > 133 | > 133 | > 133
8 | CC(C)(C)NCC(O)c1ccc(O)c(CO)c1 (centres undefined) [ALBUTEROL] | > 133 | > 133 | > 133
9 | CCCCC[C@H](O)/C=C/[C@H]1[C@H](O)CC(=O)[C@@H]1CCCCCCC(=O)O [ALPROSTADIL] | 26.9 | 2.3 | > 133
10 | O=C1CCc2ccc(OCCCCN3CCN(c4cccc(Cl)c4Cl)CC3)cc2N1 [ARIPIPRAZOLE] | > 133 | > 133 | > 133
11 | Cn1cnc([N+](=O)[O-])c1Sc1ncnc2nc[nH]c12 [AZATHIOPRINE] | > 133 | > 133 | > 133
12 | C=C(c1ccc(C(=O)O)cc1)c1cc2c(cc1C)C(C)(C)CCC2(C)C [BEXAROTENE] | > 133 | > 133 | > 133
13 | CN(C)CCC(c1ccc(Br)cc1)c1ccccn1 (centres undefined) [BROMPHENIRAMINE MALEATE] | > 133 | > 133 | > 133
14 | CC1=C(C(=O)O)N2C(=O)[C@@H](NC(=O)[C@H](N)c3ccc(O)cc3)[C@H]2SC1 [CEFADROXIL] | > 133 | > 133 | > 133
15 | CO[C@@]1(NC(=O)C2SC(=C(C(N)=O)C(=O)O)S2)C(=O)N2C(C(=O)O)=C(CSc3nnnn3C)CS[C@@H]21 (some centres undefined) [CEFOTETAN] | 79 | – | –
16 | O=C(N[C@H](CO)[C@H](O)c1ccc([N+](=O)[O-])cc1)C(Cl)Cl [CHLORAMPHENICOL] | > 133 | > 133 | –
17 | CCN(CC)CCCC(C)Nc1ccnc2cc(Cl)ccc12 (centres undefined) [CHLOROQUINE] | > 133 | 104 | > 133
18 | CC1(COc2ccc(CC3SC(=O)NC3=O)cc2)CCCCC1 (centres undefined) [CIGLITAZONE] | > 133 | > 133 | > 133
19 | CN/C(=N/CCSCc1nc[nH]c1C)NC#N [CIMETIDINE] | > 133 | > 133 | > 133
20 | C(=C\c1ccccc1)/CN1CCN(C(c2ccccc2)c2ccccc2)CC1 [CINNARIZINE] | > 133 | > 133 | > 133
21 | O=C(O)c1cn(C2CC2)c2cc(N3CCNCC3)c(F)cc2c1=O [CIPROFLOXACIN] | > 133 | > 133 | > 133
22 | CN(C)CCCN1c2ccccc2CCc2ccc(Cl)cc21 [CLOMIPRAMINE] | > 133 | > 133 | > 133

Row | Compound | IC50 [1] [µM] | IC50 [2] [µM] | IC50 [3] [µM]
23 | COc1cc2c(c(OC)c1OC)-c1ccc(OC)c(=O)cc1[C@@H](NC(C)=O)CC2 [COLCHICINE] | > 133 | > 133 | > 133
24 | Nc1ccn([C@@H]2O[C@H](CO)[C@@H](O)[C@@H]2O)c(=O)n1 [CYTARABINE] | > 133 | > 133 | > 133
25 | Nc1ccc(S(=O)(=O)c2ccc(N)cc2)cc1 [DAPSONE] | > 133 | > 133 | > 133
26 | Clc1ccc2c(c1)CCc1cccnc1C2=C1CCNCC1 [DESLORATADINE] | > 133 | > 133 | > 133
27 | CN(C)CC[C@@H](c1ccc(Br)cc1)c1ccccn1 [DEXBROMPHENIRAMINE MALEATE] | > 133 | > 133 | > 133
28 | O=c1[nH]cnc2c1ncn2[C@H]1CC[C@@H](CO)O1 [DIDANOSINE] | > 133 | > 133 | > 133
29 | COc1ccc([C@@H]2Sc3ccccc3N(CCN(C)C)C(=O)[C@@H]2OC(C)=O)cc1 [DILTIAZEM] | > 133 | > 133 | > 133
30 | C[C@@H](O)[C@H]1C(=O)N2C(C(=O)O)=C(S[C@@H]3CN[C@H](CNS(N)(=O)=O)C3)[C@H](C)[C@H]12 [DORIPENEM] | > 133 | > 133 | > 133
31 | CN(C)CCC=C1c2ccccc2COc2ccccc21 [DOXEPIN] | > 133 | > 133 | > 133
32 | C[C@H](N[C@@H](CCc1ccccc1)C(=O)O)C(=O)N1CCC[C@H]1C(=O)O [ENALAPRILAT ANHYDROUS] | > 133 | > 133 | > 133
33 | CC[C@H]1OC(=O)[C@H](C)[C@@H](O[C@H]2C[C@@](C)(OC)[C@@H](O)[C@H](C)O2)[C@H](C)[C@@H](O[C@@H]2O[C@H](C)C[C@H](N(C)C)[C@H]2O)[C@](C)(O)C[C@@H](C)C(=O)[C@H](C)[C@@H](O)[C@]1(C)O [ERYTHROMYCIN] | > 133 | > 133 | > 133
34 | C[C@]12CC[C@@H]3c4ccc(O)cc4CC[C@H]3[C@@H]1CC[C@@H]2O [ESTRADIOL] | > 133 | > 133 | –
35 | C=C(CC)C(=O)c1ccc(OCC(=O)O)c(Cl)c1Cl [ETHACRYNIC ACID] | 95.9 | > 133 | 3.85
36 | CC[C@@H](CO)NCCN[C@@H](CC)CO [ETHAMBUTOL HYDROCHLORIDE] | 88.2 | > 133 | > 133
37 | COc1cc([C@@H]2c3cc4c(cc3[C@@H](O[C@@H]3O[C@@H]5CO[C@@H](C)O[C@H]5[C@H](O)[C@H]3O)[C@H]3COC(=O)[C@H]23)OCO4)cc(OC)c1O [ETOPOSIDE] | > 133 | > 133 | > 133
38 | OC(Cn1cncn1)(Cn1cncn1)c1ccc(F)cc1F [FLUCONAZOLE] | > 133 | > 133 | > 133
39 | CNCCC(Oc1ccc(C(F)(F)F)cc1)c1ccccc1 (centres undefined) [FLUOXETINE] | > 133 | > 133 | > 133
40 | COCCCC/C(=N\OCCN)c1ccc(C(F)(F)F)cc1 [FLUVOXAMINE MALEATE] | > 133 | > 133 | > 133
41 | NS(=O)(=O)c1cc(C(=O)O)c(NCc2ccco2)cc1Cl [FUROSEMIDE] | > 133 | > 133 | > 133
42 | O=C(CCCN1CCC(O)(c2ccc(Cl)cc2)CC1)c1ccc(F)cc1 [HALOPERIDOL] | > 133 | > 133 | –
43 | O=C(O)CCc1nc(-c2ccccc2)c(-c2ccccc2)o1 [OXAPROZIN] | > 133 | – | > 133
44 | O=C(O)c1cc(/N=N/c2ccc(S(=O)(=O)Nc3ccccn3)cc2)ccc1O [SULFASALAZINE] | 14.6 | 1.5 | –
